# Results taken from patent US20040023994A1 (priority 2002, published 2004).
# Marks after values point to notes of the source that are not given here.
# How the values were obtained:
# [1] = tested on: HOP-92; settings: HOP-92, Non-Small Cell Lung, NCI database, cited from earlier work; for CC50: read-out: LC50 (the source's name)
# [2] = tested on: SNB-19; settings: SNB-19, CNS, NCI database, cited from earlier work; for CC50: read-out: LC50 (the source's name)
# [3] = tested on: UACC-62; settings: UACC-62, Melanoma, NCI database, cited from earlier work; for CC50: read-out: LC50 (the source's name)
# [4] = tested on: Heterozygous nude CD-1 male mice; experiment: Liver function (AST, ALT in plasma) and liver histopathology in treated mice
# Method: Heterozygous nude CD-1 male mice were treated (i.p.) with multiple doses consisting of either one dose daily for three consecutive days (cis-AVTP or trans-AVTG, 21.25 μmol/kg, 6-TG, 8.5 or 21.25 μmol/kg, or vehicle; one cycle), or one dose daily for three consecutive days, repeated again five days later (cis-AVTP, trans-AVTG or 6-TG, 8.5 or 21.25 μmol/kg, or vehicle; two cycles).
# The mice were sacrificed 24 h after the last treatment. Urine was collected for 24 h before initiation of treatment and every 24 h thereafter until the mice were sacrificed. Blood was collected by cardiac puncture and blood cells counted. Sections of liver, kidney, intestines, stomach and sternum were stained with hematoxylin and eosin and subjected to pathological analysis. Bone marrow smears were prepared for assessment of bone marrow cellularity. Liver function was evaluated by measuring alanine aminotransferase-(ALT) and aspartate aminotransferase (AST) activities in plasma. Kidney function was evaluated by measuring blood urea nitrogen in plasma and γ-glutamyltransferase activity and glucose levels in urine.
# [5] = tested on: HL-60(TB); experiment: cells; settings: Homo sapiens, HL-60, 48 h
# [6] = tested on: DU-145; assay type: cell-based; settings: DU-145, Prostate, 48 h
# [7] = tested on: TK-10; assay type: cell-based; settings: TK-10, Renal, 48 h
# [8] = tested on: MALME-3M
# [9] = tested on: NCI-H522; settings: NCI-H522, Non-Small Cell Lung, 48 h
# [10] = Homo sapiens, read-out: LC50 (the source's name)
Structure (SMILES),GI50 [1] [µM],TGI [1] [µM],CC50 [1] [µM],GI50 [2] [µM],TGI [2] [µM],CC50 [2] [µM],GI50 [3] [µM],TGI [3] [µM],CC50 [3] [µM],"ALT ([4]; 8.5 μmol/kg, two cycles)","AST ([4]; 8.5 μmol/kg, two cycles)","ALT ([4]; 21.25 μmol/kg, one cycle)","AST ([4]; 21.25 μmol/kg, one cycle)","ALT ([4]; 21.25 μmol/kg, two cycles)","AST ([4]; 21.25 μmol/kg, two cycles)",further results
"Sc1ncnc2nc[nH]c12 [6-MP, 6-mercaptopurine]",2.6,>100,> 100,> 100,>100,> 100,1.63,>100,> 100,,,,,,,
"Nc1nc2nc[nH]c2c(=S)[nH]1 [6-TG, 6-thioguanine]",0.73,24.0,> 100,78.5,>100,> 100,0.5,4.53,74.1,10.5 ± 6.6^a SF U/ml,37.9 ± 12.2^a SF U/ml,15.0 ± 2.5^b SF U/ml,44.4 ± 5.4^c SF U/ml,12.6 ± 4.8^a SF U/ml,68.2 ± 54.5^a SF U/ml,"ALT ([4]; 8.5 μmol/kg, one cycle): 9.2 ± 3.2 SF U/ml; AST ([4]; 8.5 μmol/kg, one cycle): 43.5 ± 24.8 SF U/ml"
"CC(=O)C=CSc1ncnc2nc[nH]c12 [cis-AVTP, 6-(2-acetylvinylthio) purine]",,,,,,,,,,7.8 ± 4.0^a SF U/ml,55.1 ± 37.5^a SF U/ml,"2.0 ± 2.0^a,* SF U/ml",25.5 ± 4.3^a SF U/ml,"16.0 ± 4.3^a,# SF U/ml",60.2 ± 30.8^a SF U/ml,"GI50 [5]: 0.49 µM; CC50 ([5]; read-out: LC50): > 100 µM; TGI [6]: 3.97 µM; GI50 ([6]; Homo sapiens): 1.32 µM; CC50 [6, 10]: 24.4 µM; GI50 ([7]; Homo sapiens): 0.03 µM; CC50 [7, 10]: 13.9 µM; TGI [7]: 0.64 µM"
"CC(=O)C=CSc1nc(N)nc2nc[nH]c12 [trans-AVTG, 6-(2-acetylvinylthio) guanine]",,,,,,,,,,,,,,,,"GI50 ([8]; Melanoma, 48 h): 0.37 µM; TGI ([8]; Melanoma, 48 h): 3.07 µM; CC50 ([8]; read-out: LC50, Melanoma, 48 h): 29.3 µM; GI50 [9]: 0.02 µM; TGI [9]: 0.05 µM; CC50 ([9]; read-out: LC50): 8.28 µM"
